Measurements published in patent publication US20220047530A1, “USE OF HORDENINE IN PREPARING DRUG FOR TREATING HYPOPHYSOMA” (Wuhan Third Hospital, priority 2019, published 2022).
Entries after “also recorded” stand apart in the source; their conditions may differ.

Key:
SD rats = assay: Acute toxicity test (maximum dose method); format: in vivo; set-up: key to Inflammation score: 0: no or very little inflammation; 1: mild inflammation; 2: moderate inflammation; 3: severe inflammation; conditions: for ALB / ALP / ALT / AST / DBIL / TBA / TBIL / TP / γ-GT: serum
Description: The experimental animals are 40 SPF-grade SD rats, provided by the Experimental Animal Center of China Three Gorges University (SCXK (E)) 2017-0012), wherein half are males, and half are females, each with a body weight of 150 g; the animal number is: No. 42010200001245, and the experimental unit license number is: SYXK (E) 2014-0080.
5 SPF-grade SD rats are randomly selected for toxicity prediction. Another 30 SPF-grade SD rats are randomly selected, wherein half are males, and half are females. After the purchase of the animals, the animals are adaptively fed for one week. The rats are fasted at the night before the experiment (without stopping the provision of water). During the experiment, the animals are randomly divided into 3 groups, which are the control group, the low-dose hordenine treatment group (0.035 g/kg), and the high-dose hordenine treatment group (0.07 g/kg).
If no rats die in the pre-experiment, according to the acute toxicity test method, the maximum dose method is used, and hordenine is administered by gavage at a high dose of 0.07 g/kg and a low dose of 0.035 g/kg, respectively. The control group is given the same volume of saline. The administration is carried out twice a day (with an interval of no less than 4 hours) for 7 days, and the rats are fasted for 3 to 4 hours after the administration. The animals' immediate reactions are recorded, and the rats' appearance, behavior, activity, spirit, appetite, fur, breathing, weight, and the like, are carefully observed continuously for 14 days. The poisoning, death, and amounts of food and water consumed by the rats are recorded daily to determine the LD0 (0% mortality), LD100 (100% mortality) and the r value between the corresponding dose groups, and determine the LD50 (half lethal dose) value. For mice that die during the experiment, they should be dissected immediately to find the cause of their death. After the completion of the experiment, all survived rats are anesthetized by intraperitoneal injection of urethane, and immediately dissected to remove the heart, liver, spleen, lung, and kidney, which are observed with naked eyes for disease. And pathological sections of each organ are made: The tissues are fixed with a solution of 4% paraformaldehyde, conventionally sampled, dehydrated, embedded in paraffin, made into a slice (4 μm thick), stained with HE staining method, observed with an optical microscope, and photographed to roughly determine the target organs of toxicity. The serum of all experimental rats is used for the determination of routine blood biochemical indexes.

TLR4/NF-κB/MAPK pathway = assay: Western blot of pituitary protein expression in rats with prolactinoma and adrenocorticotrophic hormone adenoma; format: in vivo, F344 rats (Rattus norvegicus); conditions: once a day for 30 days by gavage; vs model group
Description: 70 rats of the prolactinoma and adrenocorticotrophic hormone adenoma model as established in Step 1.1 “Establishment of Rattus norvegicus pituitary tumor model” and normal rats of the control group are used as samples.
The 70 F344 rats are randomly divided into the normal group, operation group, model group, positive drug group (bromocriptine positive drug group), high-dose hordenine group, medium-dose hordenine group, and low-dose hordenine group, […]. Except rats in the normal group and the operation group, rats in the other groups are all made into rats with prolactinoma and adrenocorticotrophic hormone adenoma.
Rats in the positive drug group are given an aqueous bromocriptine solution by gavage at a dose of 0.45 mg/kg. Rats in the high-, medium- and low-dose groups of an aqueous solution of hordenine are given an aqueous solution of hordenine by oral gavage at a dose of 40 mg/kg, 20 mg/kg, and 10 mg/kg, respectively. Rats in the normal group and the model group are given the same dose of distilled water. The administration is performed once a day for 30 days, and during this period of time, the rats are weighed every five days and the changes in body weight are recorded.
Tissue extraction: The animals in each group are anesthetized, and the pituitary glands are removed as described in Section 2.2.2 of Part I, which are kept at −80° C. for later use.
The protein expression of TLR4/NF-κB/MAPK pathway in rats in the treatment groups after the administration of hordenine is determined by Western blotting detection. The effect of hordenine on the expression of various proteins in the pituitary glands of rats with prolactinoma and adrenocorticotrophic hormone adenoma as determined by Western blot detection on is shown in FIG. 16.

[1] = gavage 0.07 and 0.035 g/kg twice a day for 7 days
[2] = low-dose, high-dose vs control, P>0.05
[3] = high-dose group (0.07 g/kg), female
[4] = high-dose group (0.07 g/kg), male
[5] = low-dose group (0.035 g/kg), female
[6] = low-dose group (0.035 g/kg), male

Question: Which results are given for `CN(C)CCc1ccc(O)cc1` [hordenine, 4-(2-dimethylaminoethyl)phenol]?
Answer: Inflammation score (SD rats; Heart, female, high-dose group): 0; Inflammation score (SD rats; Heart, female, low-dose group): 0; Inflammation score (SD rats; Heart, male, high-dose group): 0; Inflammation score (SD rats; Heart, male, low-dose group): 0; Inflammation score (SD rats; Kidney, female, high-dose group): 0; Inflammation score (SD rats; Kidney, female, low-dose group): 0; Inflammation score (SD rats; Kidney, male, high-dose group): 1; Inflammation score (SD rats; Kidney, male, low-dose group): 0; Inflammation score (SD rats; Liver, female, high-dose group): 0; Inflammation score (SD rats; Liver, female, low-dose group): 0; Inflammation score (SD rats; Liver, male, high-dose group): 0; Inflammation score (SD rats; Liver, male, low-dose group): 0; Inflammation score (SD rats; Lung, female, high-dose group): 1; Inflammation score (SD rats; Lung, female, low-dose group): 0; Inflammation score (SD rats; Lung, male, high-dose group): 1; Inflammation score (SD rats; Lung, male, low-dose group): 0; Inflammation score (SD rats; Spleen, female, high-dose group): 1; Inflammation score (SD rats; Spleen, female, low-dose group): 0; Inflammation score (SD rats; Spleen, male, high-dose group): 1; Inflammation score (SD rats; Spleen, male, low-dose group): 0; general clinical signs (SD rats; [1]): no other adverse reactions; time to recovery of reduced activity after treatment (SD rats; [1]): about 2 hours; death of rats (SD rats; gavage 0.07 g/kg and 0.035 g/kg twice a day for 7 days): No rats die; also recorded: no Rattus norvegicus death; lethal dose (SD rats; gavage, twice a day for 7 days): greater than 0.14 g/kg; inflammation in the liver, spleen, and kidneys (pathological slices and biochemical experiments) (SD rats; high-dose group): slight inflammation; kidney pathology (SD rats; high-dose group): topical renal tubule interstitial connective tissue of rats in the high-dose group is proliferated; liver pathology (hepatocytes) (SD rats; high-dose group): extensive severe edema; lung pathology (SD rats; high-dose group): proliferated alveolar epithelial cells, and the alveolar walls are thickened; spleen pathology (white pulp) (SD rats; high-dose group): topical lymphocytes in the white pulp of the spleen tissue are reduced; tissue inflammatory response in the spleen, lung, and kidney (SD rats; high-dose group): mild inflammatory response; kidney pathology (SD rats; low-dose group): no obvious abnormality; liver pathology (hepatocytes) (SD rats; low-dose group): extensive edema; lung pathology (SD rats; low-dose group): a large number of proliferated alveolar epithelial cells; spleen pathology (white pulp) (SD rats; low-dose group): A small amount of lymphocytes exhibit necrosis, apoptosis; tissue inflammatory response (SD rats; low-dose group): no inflammatory response; liver function indexes (SD rats; [2]): no significant influence; renal function (blood BUN and CREA) (SD rats; [2]): no significant influence; body weight (SD rats; one week after the treatment): physiological increase; ALB (SD rats; [3]): 32.45 ± 1.61 g/L; ALP (SD rats; [3]): 195.08 ± 92.02 U/L; ALT (SD rats; [3]): 51.25 ± 4.84 U/L; AST (SD rats; [3]): 141 ± 12.04 U/L; DBIL (SD rats; [3]): 7.23 ± 1.72 µmol/L; TBA (SD rats; [3]): 27.57 ± 12.2 µmol/L; TBIL (SD rats; [3]): 13.4 ± 5.73 µmol/L; TP (SD rats; [3]): 55.45 ± 2.31 g/L; γ-GT (SD rats; [3]): 3.62 ± 1.97 U/L; ALB (SD rats; [4]): 29.5 ± 1.05 g/L; ALP (SD rats; [4]): 278.67 ± 38.64 U/L; ALT (SD rats; [4]): 51.47 ± 6.19 U/L; AST (SD rats; [4]): 147.02 ± 17.42 U/L; DBIL (SD rats; [4]): 6.14 ± 0.86 µmol/L; TBA (SD rats; [4]): 41.43 ± 10.19 µmol/L; TBIL (SD rats; [4]): 10.08 ± 2.69 µmol/L; TP (SD rats; [4]): 49.11 ± 2.17 g/L; γ-GT (SD rats; [4]): 3.9 ± 2.10 U/L; ALB (SD rats; [5]): 31.88 ± 1.02 g/L; ALP (SD rats; [5]): 229.4 ± 70.39 U/L; ALT (SD rats; [5]): 43.54 ± 3.84 U/L; AST (SD rats; [5]): 146.92 ± 24.61 U/L; DBIL (SD rats; [5]): 9.03 ± 5.05 µmol/L; TBA (SD rats; [5]): 23.77 ± 6.9 µmol/L; TBIL (SD rats; [5]): 11.67 ± 5.16 µmol/L; TP (SD rats; [5]): 53.54 ± 1.24 g/L; γ-GT (SD rats; [5]): 3.92 ± 1.78 U/L; ALB (SD rats; [6]): 28.86 ± 0.55 g/L; ALP (SD rats; [6]): 328.05 ± 53.25 U/L; ALT (SD rats; [6]): 40.46 ± 5.55 U/L; AST (SD rats; [6]): 116.65 ± 18.14 U/L; DBIL (SD rats; [6]): 6.81 ± 2.83 µmol/L; TBA (SD rats; [6]): 36.99 ± 10.95 µmol/L; TBIL (SD rats; [6]): 10.64 ± 4.19 µmol/L; TP (SD rats; [6]): 47.34 ± 1.99 g/L; γ-GT (SD rats; [6]): 2.59 ± 1.84 U/L; pathological sections: toxicity to liver, spleen, lung and kidney (SD rats; treatment groups): slight toxicity; physiological conditions, weight changes, behavioral activities vs control group (SD rats; treatment groups): no significant differences; expression of ATCH in pituitary glands (Western blot) (TLR4/NF-κB/MAPK pathway): significantly reduce; expression of MAPK12 in pituitary glands (Western blot) (TLR4/NF-κB/MAPK pathway): significantly reduce; also recorded: significantly down-regulated; expression of NF-kB protein in pituitary glands (TLR4/NF-κB/MAPK pathway): significantly down-regulated; expression of PRL in pituitary glands (Western blot) (TLR4/NF-κB/MAPK pathway): significantly reduce; expression of STAT3 protein in pituitary glands (TLR4/NF-κB/MAPK pathway): significantly down-regulated; expression of TLR4 in pituitary glands (Western blot) (TLR4/NF-κB/MAPK pathway): significantly reduce; also recorded: significantly down-regulated; expression of TNF-α in pituitary glands (Western blot) (TLR4/NF-κB/MAPK pathway): significantly reduce; expression of caspase-1 protein in pituitary glands (TLR4/NF-κB/MAPK pathway): significantly down-regulated
